Experimental data from PubChem BioAssay AID190 (DTP/NCI, 2004).
Values joined by “and” are separate entries in the source; they are usually repeats but may differ in a detail not shown here. Equal values may be shown once. Inconclusive results and toxic doses are left out.

Test system: AKR/Lw mice, AKR lymphoma ip, median survival T/C
Experiment: NCI In Vivo Anticancer Drug Screen. Data for tumor model Lymphoma AKR (Transplanted) (intraperitoneal) in AKR/Lw mice
Conditions: endpoint: median survival time, higher = longer survival
Experimental: The antitumor activity of compounds was measured in mice bearing transplantable tumors. Survival or tumor size were measured and the results are expressed as the measurement made in the treated group (T) divided by the measurement made in the vehicle treated control group (C). The tumor model used in this assay is Lymphoma AKR (Transplanted) (intraperitoneal) in AKR/Lw mice

[1] = dose: 10.0 mg/kg/injection, schedule: Q01DX009 (ip), vehicle: saline
[2] = dose: 60.0 mg/kg/injection, schedule: Q01DX009 (ip), vehicle: saline
[3] = dose: 80.0 mg/kg/injection, schedule: Q01DX009 (ip), vehicle: saline
[4] = dose: 100.0 mg/kg/injection, schedule: Q01DX001 (ip), vehicle: Klucel (hydroxypropylcellulose) (HPC)
[5] = dose: 200.0 mg/kg/injection, schedule: Q01DX001 (ip), vehicle: saline
[6] = dose: 400.0 mg/kg/injection, schedule: Q01DX001 (ip), vehicle: Klucel (hydroxypropylcellulose) (HPC)
[7] = dose: 400.0 mg/kg/injection, schedule: Q01DX001 (ip), vehicle: saline
[8] = dose: 100.0 mg/kg/injection, schedule: Q01DX001 (ip), vehicle: saline

With `S=c1nc[nH]c2nc[nH]c12` the T/C (dose: 6.25 mg/kg/injection, schedule: Q01DX015 (ip), vehicle: Klucel (hydroxypropylcellulose) (HPC)) was 110 % of control, the T/C [1] was 94 % of control and the T/C (dose: 12.5 mg/kg/injection, schedule: Q01DX015 (ip), vehicle: Klucel (hydroxypropylcellulose) (HPC)) was 100 % of control. The T/C (dose: 20.0 mg/kg/injection, schedule: Q01DX009 (ip), vehicle: saline) was 94 % of control and 102 % of control and 105 % of control, the T/C (dose: 25.0 mg/kg/injection, schedule: Q01DX015 (ip), vehicle: Klucel (hydroxypropylcellulose) (HPC)) was 100 % of control and the T/C (dose: 30.0 mg/kg/injection, schedule: Q01DX001 (ip), vehicle: saline) was 104 % of control and 109 % of control and 112 % of control. For the same compound, the T/C (dose: 30.0 mg/kg/injection, schedule: Q01DX009 (ip), vehicle: saline) was 100 % of control, the T/C (dose: 30.0 mg/kg/injection, schedule: Q04DX003 (ip), vehicle: saline) was 102 % of control and the T/C (dose: 37.5 mg/kg/injection, schedule: Q01DX009 (ip), vehicle: saline) was 104 % of control. The T/C (dose: 40.0 mg/kg/injection, schedule: Q01DX009 (ip), vehicle: saline) was 94 % of control and 97 % of control and 113 % of control, the T/C (dose: 50.0 mg/kg/injection, schedule: Q01DX009 (ip), vehicle: Klucel (hydroxypropylcellulose) (HPC)) was 100 % of control and the T/C (dose: 50.0 mg/kg/injection, schedule: Q01DX009 (ip), vehicle: saline) was 120 % of control. For the same compound, the T/C (dose: 50.0 mg/kg/injection, schedule: Q01DX015 (ip), vehicle: Klucel (hydroxypropylcellulose) (HPC)) was 92 % of control and 93 % of control, the T/C (dose: 50.0 mg/kg/injection, schedule: Q04DX003 (ip), vehicle: saline) was 100 % of control and the T/C (dose: 60.0 mg/kg/injection, schedule: Q01DX001 (ip), vehicle: saline) was 97 % of control and 111 % of control and 113 % of control. The T/C [2] was 96 % of control, the T/C (dose: 60.0 mg/kg/injection, schedule: Q04DX003 (ip), vehicle: saline) was 119 % of control and the T/C (dose: 75.0 mg/kg/injection, schedule: Q01DX001 (ip), vehicle: saline) was 113 % of control. The T/C (dose: 75.0 mg/kg/injection, schedule: Q01DX009 (ip), vehicle: saline) was 109 % of control, the T/C [3] was 94 % of control and 123 % of control and the T/C [4] was 96 % of control. For the same compound, the T/C (dose: 100.0 mg/kg/injection, schedule: Q01DX009 (ip), vehicle: Klucel (hydroxypropylcellulose) (HPC)) was 90 % of control, the T/C (dose: 100.0 mg/kg/injection, schedule: Q01DX009 (ip), vehicle: saline) was 93 % of control and the T/C (dose: 100.0 mg/kg/injection, schedule: Q04DX003 (ip), vehicle: Klucel (hydroxypropylcellulose) (HPC)) was 97 % of control and 100 % of control and 108 % of control. For the same compound, the T/C (dose: 100.0 mg/kg/injection, schedule: Q04DX003 (ip), vehicle: saline) was 102 % of control and 123 % of control, the T/C (dose: 120.0 mg/kg/injection, schedule: Q01DX001 (ip), vehicle: saline) was 93 % of control and 104 % of control and 222 % of control and the T/C (dose: 120.0 mg/kg/injection, schedule: Q04DX003 (ip), vehicle: saline) was 100 % of control. For the same compound, the T/C (dose: 150.0 mg/kg/injection, schedule: Q01DX001 (ip), vehicle: Klucel (hydroxypropylcellulose) (HPC)) was 102 % of control and 112 % of control, the T/C (dose: 150.0 mg/kg/injection, schedule: Q01DX009 (ip), vehicle: saline) was 100 % of control and the T/C (dose: 175.0 mg/kg/injection, schedule: Q01DX001 (ip), vehicle: Klucel (hydroxypropylcellulose) (HPC)) was 100 % of control. The T/C [5] was 104 % of control, the T/C (dose: 200.0 mg/kg/injection, schedule: Q01DX009 (ip), vehicle: saline) was 110 % of control and the T/C (dose: 200.0 mg/kg/injection, schedule: Q04DX003 (ip), vehicle: Klucel (hydroxypropylcellulose) (HPC)) was 90 % of control. The T/C (dose: 200.0 mg/kg/injection, schedule: Q04DX003 (ip), vehicle: saline) was 90 % of control, the T/C (dose: 300.0 mg/kg/injection, schedule: Q01DX001 (ip), vehicle: Klucel (hydroxypropylcellulose) (HPC)) was 106 % of control and the T/C (dose: 300.0 mg/kg/injection, schedule: Q01DX001 (ip), vehicle: saline) was 119 % of control. The T/C [6] was 113 % of control, the T/C [7] was 102 % of control and the T/C (dose: 400.0 mg/kg/injection, schedule: Q04DX003 (ip), vehicle: Klucel (hydroxypropylcellulose) (HPC)) was 121 % of control. For the same compound, the T/C (dose: 600.0 mg/kg/injection, schedule: Q01DX001 (ip), vehicle: Klucel (hydroxypropylcellulose) (HPC)) was 115 % of control.
`CCCCCCCCCCCCCCCC(=O)N(CCC#N)CCCCCCCCCN(CCC#N)C(=O)CCCCCCCCCCCCCCC` was tested, and the T/C [8] was 116 % of control and the T/C [5] was 94 % of control.
For `O=C1CC2CCCC(C1)S2=O` (configuration not stated), the T/C [8] was 113 % of control, the T/C [5] was 89 % of control and the T/C [7] was 97 % of control.
For `O=P1(NCCCl)OCCCN1CCCl` (configuration not stated), the T/C (dose: 5.0 mg/kg/injection, schedule: Q01DX009 (ip), vehicle: saline) was 108 % of control, the T/C (dose: 6.25 mg/kg/injection, schedule: Q04DX003 (ip), vehicle: saline) was 96 % of control and the T/C [1] was 110 % of control and 113 % of control. For the same compound, the T/C (dose: 12.5 mg/kg/injection, schedule: Q04DX003 (ip), vehicle: saline) was 96 % of control, the T/C (dose: 18.7 mg/kg/injection, schedule: Q01DX001 (ip), vehicle: saline) was 95 % of control and the T/C (dose: 18.75 mg/kg/injection, schedule: Q01DX001 (ip), vehicle: saline) was 97 % of control. For the same compound, the T/C (dose: 25.0 mg/kg/injection, schedule: Q01DX001 (ip), vehicle: saline) was 120 % of control, the T/C (dose: 37.5 mg/kg/injection, schedule: Q01DX001 (ip), vehicle: saline) was 95 % of control and 113 % of control and the T/C (dose: 37.5 mg/kg/injection, schedule: Q04DX003 (ip), vehicle: saline) was 95 % of control. For the same compound, the T/C (dose: 50.0 mg/kg/injection, schedule: Q01DX001 (sc), vehicle: steriod suspending solution) was 103 % of control, the T/C (dose: 54.0 mg/kg/injection, schedule: Q01DX001 (ip), vehicle: saline with Tween-80) was 162 % of control and the T/C (dose: 54.0 mg/kg/injection, schedule: Q07DX002 (ip), vehicle: water) was 155 % of control. The T/C [2] was 115 % of control, the T/C (dose: 75.0 mg/kg/injection, schedule: Q07DX003 (ip), vehicle: saline) was 168 % of control and 184 % of control and 186 % of control and the T/C [3] was 90 % of control. For the same compound, the T/C (dose: 100.0 mg/kg/injection, schedule: Q07DX003 (ip), vehicle: saline) was 189 % of control, the T/C (dose: 108.0 mg/kg/injection, schedule: Q01DX001 (ip), vehicle: saline with Tween-80) was 346 % of control and the T/C (dose: 108.0 mg/kg/injection, schedule: Q07DX002 (ip), vehicle: water) was 355 % of control. For the same compound, the T/C (dose: 125.0 mg/kg/injection, schedule: Q01DX001 (ip), vehicle: saline) was 113 % of control and 153 % of control and 222 % of control, the T/C (dose: 125.0 mg/kg/injection, schedule: Q01DX001 (sc), vehicle: steriod suspending solution) was 153 % of control and the T/C (dose: 125.0 mg/kg/injection, schedule: Q04DX003 (ip), vehicle: saline) was 182 % of control and 236 % of control. For the same compound, the T/C (dose: 125.0 mg/kg/injection, schedule: Q07DX003 (ip), vehicle: saline) was 157 % of control, the T/C (dose: 216.0 mg/kg/injection, schedule: Q01DX001 (ip), vehicle: saline with Tween-80) was 375 % of control and the T/C (dose: 216.0 mg/kg/injection, schedule: Q07DX002 (ip), vehicle: water) was 333 % of control. For the same compound, the T/C (dose: 250.0 mg/kg/injection, schedule: Q01DX001 (ip), vehicle: saline) was 120 % of control and 222 % of control, the T/C (dose: 250.0 mg/kg/injection, schedule: Q01DX001 (sc), vehicle: steriod suspending solution) was 120 % of control and the T/C (dose: 250.0 mg/kg/injection, schedule: Q04DX003 (ip), vehicle: saline) was 221 % of control and 236 % of control. For the same compound, the T/C (dose: 300.0 mg/kg/injection, schedule: Q04DX003 (ip), vehicle: saline) was 105 % of control, the T/C [7] was 86 % of control and the T/C (dose: 400.0 mg/kg/injection, schedule: Q01DX001 (sc), vehicle: steriod suspending solution) was 123 % of control. For the same compound, the T/C (dose: 432.0 mg/kg/injection, schedule: Q01DX001 (ip), vehicle: saline with Tween-80) was 375 % of control and the T/C (dose: 600.0 mg/kg/injection, schedule: Q01DX001 (ip), vehicle: saline) was 111 % of control.
`COc1cc([C@@H]2c3cc4c(cc3[C@@H](OC3OC5COC(C)OC5C(O)C3O)[C@H]3COC(=O)[C@H]23)OCO4)cc(OC)c1O` (some centres not stated) was tested, and the T/C (dose: 5.0 mg/kg/injection, schedule: Q01DX009 (ip), vehicle: Klucel (hydroxypropylcellulose) (HPC)) was 321 % of control.
In the case of `O=CN(c1ccccc1)c1ccccc1`, the T/C (dose: 25.0 mg/kg/injection, schedule: Q01DX001 (ip), vehicle: Klucel (hydroxypropylcellulose) (HPC)) is reported as 111 % of control, the T/C (dose: 50.0 mg/kg/injection, schedule: Q01DX001 (ip), vehicle: Klucel (hydroxypropylcellulose) (HPC)) is reported as 105 % of control and the T/C [4] is reported as 97 % of control. The T/C (dose: 100.0 mg/kg/injection, schedule: Q01DX001 (ip), vehicle: other) was 120 % of control, the T/C (dose: 200.0 mg/kg/injection, schedule: Q01DX001 (ip), vehicle: other) was 118 % of control and the T/C (dose: 400.0 mg/kg/injection, schedule: Q01DX001 (ip), vehicle: other) was 100 % of control.
For `CCOC(=O)C1OC12CCCCC2` (configuration not stated), the T/C [4] was 96 % of control, the T/C (dose: 200.0 mg/kg/injection, schedule: Q01DX001 (ip), vehicle: Klucel (hydroxypropylcellulose) (HPC)) was 92 % of control and the T/C [6] was 100 % of control.
